PubChem BioAssay AID2060885 (Molecular Pharmacology Branch, DTP, NCI, 2025)

Tested on: NCI-H23 complex spheroids with HUVEC/MSC, viability
Test: Anticancer human tumor NCI-H23 cell line growth inhibition [RAS];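 further: spheroids exposed to compound for 7 days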;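 on viability, T/C: 100% = DMSO vehicle control viability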
Details: for IC50: curve of first compound; for viability, T/C: stronger effect = lower value
Procedure, shortened: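 Tumour cells grown as complex spheroids with HUVEC endothelial cells and mesenchymal stem cells, treated with RAS pathway inhibitor combinations. Each agent spans half-log steps from near clinical Cmax, or 10 microM where Cmax is unknown.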

Cc1nc(N2CCC3(CC2)COC(C)C3N)c(CO)nc1Sc1ccnc(N)c1Cl (configuration not stated) + CCn1c(-c2cc(N3CCN(C)CC3)cnc2C(C)OC)c2c3cc(ccc31)-c1csc(n1)CC(NC(=O)C1CC1C)C(=O)N1CCCC(N1)C(=O)OCC(C)(C)C2
IC50 (second compound 0.000949 µM): < 31.6 nM | IC50 (second compound 0.003 µM): < 31.6 nM | IC50 (second compound 0.00949 µM): < 31.6 nM | IC50 (second compound 0.03 µM): < 31.6 nM | IC50 (second compound 0.0949 µM): < 31.6 nM | IC50 (second compound 0.3 µM): < 31.6 nM | viability, T/C (second compound 0.000949 µM, first compound 0.0316 µM): 40.2% | viability, T/C (second compound 0.000949 µM, first compound 0.1 µM): 33.2% | viability, T/C (second compound 0.000949 µM, first compound 0.316 µM): 22.9% | viability, T/C (second compound 0.000949 µM, first compound 1 µM): 26.2% | viability, T/C (second compound 0.000949 µM, first compound 3.16 µM): 18.7% | viability, T/C (second compound 0.000949 µM, first compound 10 µM): 13.7% | viability, T/C (second compound 0.003 µM, first compound 0.0316 µM): 35% | viability, T/C (second compound 0.003 µM, first compound 0.1 µM): 25.4% | viability, T/C (second compound 0.003 µM, first compound 0.316 µM): 21.2% | viability, T/C (second compound 0.003 µM, first compound 1 µM): 21% | viability, T/C (second compound 0.003 µM, first compound 3.16 µM): 15% | viability, T/C (second compound 0.003 µM, first compound 10 µM): 10.5% | viability, T/C (second compound 0.00949 µM, first compound 0.0316 µM): 30.2% | viability, T/C (second compound 0.00949 µM, first compound 0.1 µM): 19.9% | viability, T/C (second compound 0.00949 µM, first compound 0.316 µM): 20% | viability, T/C (second compound 0.00949 µM, first compound 1 µM): 17.1% | viability, T/C (second compound 0.00949 µM, first compound 3.16 µM): 11.5% | viability, T/C (second compound 0.00949 µM, first compound 10 µM): 7.55% | viability, T/C (second compound 0.03 µM, first compound 0.0316 µM): 24.4% | viability, T/C (second compound 0.03 µM, first compound 0.1 µM): 22.5% | viability, T/C (second compound 0.03 µM, first compound 0.316 µM): 18% | viability, T/C (second compound 0.03 µM, first compound 1 µM): 14.1% | viability, T/C (second compound 0.03 µM, first compound 3.16 µM): 8.53% | viability, T/C (second compound 0.03 µM, first compound 10 µM): 7.44% | viability, T/C (second compound 0.0949 µM, first compound 0.0316 µM): 17.3% | viability, T/C (second compound 0.0949 µM, first compound 0.1 µM): 17.8% | viability, T/C (second compound 0.0949 µM, first compound 0.316 µM): 14.6% | viability, T/C (second compound 0.0949 µM, first compound 1 µM): 10.8% | viability, T/C (second compound 0.0949 µM, first compound 3.16 µM): 7.63% | viability, T/C (second compound 0.0949 µM, first compound 10 µM): 7.62% | viability, T/C (second compound 0.3 µM, first compound 0.0316 µM): 17.4% | viability, T/C (second compound 0.3 µM, first compound 0.1 µM): 17.8% | viability, T/C (second compound 0.3 µM, first compound 0.316 µM): 12.3% | viability, T/C (second compound 0.3 µM, first compound 1 µM): 9.93% | viability, T/C (second compound 0.3 µM, first compound 3.16 µM): 7.11% | viability, T/C (second compound 0.3 µM, first compound 10 µM): 5.57%
